Consider 22 compounds from US7829560B2, “1,4-disubstituted naphthalenes as inhibitors of P38 MAP kinase” (Arqule, Inc., priority 2004, dated 2010).

SMILES strings stand for the structures. pIC50: −log10 of the molar value.

The target in one assay is T1, p38α (Homo sapiens, UniProt Q16539).
T1 construct: p38 MAP Kinases are recombinant human full-length proteins with an amino-terminal GST fusion; GST (N); purchased Upstate Biotechnology Inc; host or cells: E. coli
Briefly: p38 MAP Kinase assay: inhibition of ATF2 phosphorylation, ELISA. Format: biochemical. The conditions noted are these: for inhibition at 10 µM: substrate ATF2, read-out: [ENZ] P38 ALPHA, PCT INH, ELISA (10 uM;ATF2) (Percent); for pIC50: ATF2 phosphorylation, read-out: [ENZ] P38 ALPHA, IC50, ELISA. The procedure, abridged: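 In vitro phosphorylation of ATF2 at Thr69 by recombinant human GST-p38 MAP kinase, read by anti-phospho-ATF2 ELISA at 450 nm. Enzyme and compound pre-incubated 15 min at RT, then 30 min reaction at 37 °C with 40 μM ATP and 1.25 μM ATF2; buffer with or without 1% HSA (Method II or I).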

For assay [1], the system named is TNFα release from THP-1 cells. The assay is described as follows: Inhibition of TNFα release from LPS-stimulated THP-1 cells, ELISA. Format: cell-based. The conditions noted are these: Homo sapiens, THP-1, THP-1 cells, read-out: [CELL] THP-1, IC50, TNF ALPHA, ELISA. From the text:
Compounds of the invention are screened for the ability to inhibit TNFα and IL-1β release from THP-1 cells stimulated with lipopolysaccharide (LPS) in vitro. The ability of compounds to inhibit TNFα and IL-1β release in this in vitro assay is correlated with the inhibition of p38 activity and TNFα and IL-1β expression in vivo, and is therefore an indicator of potential in vivo therapeutic activity (Lee J. C. et al, Ann. N.Y. Acad. Sci. 696: 149-170, 1993 and Nature, 372: 739-746, 1994).
Materials: THP-1 cells from ATCC (TIB202) are maintained at 37° C., 5% CO2 in RPMI 1640 media (available from MediaTech, Herndon, Va.) containing 4.5 g/L glucose, supplemented with 10% fetal bovine serum, 1% penicillin/streptomycin and 50 μM β-mercaptoethanol.
Methods: Test compounds are initially dissolved in RPMI media with 1% DMSO (v/v). Compounds are then serially diluted in RPMI media for all subsequent dilutions. The assay is performed under sterile conditions. THP-1 cells at a culture density of 6-8×10^5 cells/ml are collected and resuspended in the RPMI media at 10^6 cells/ml containing 10% fetal bovine serum, no serum or 1% human serum albumin (HSA). 100 μl of resuspended cells are added to each well, which contain 100 μl of a test compound. Test compounds are prepared at twice the final concentration. Final DMSO concentration is no more than 0.5% (v/v). Cells are preincubated with compound for 30 minutes at 37° C., 5% CO2 prior to stimulation with lipopolysaccharide (LPS) (Sigma L-2880, 4 mg/ml stock in PBS). The final LPS concentration in each well is 10 or 30 μg/ml for TNFα and IL-1β release, respectively. Unstimulated control cell suspensions receive PBS vehicle only. Cell mixtures are incubated for 18 or 48 hours for TNFα and IL-1β prelease, respectively. 150 μl of supernatants are taken and transferred to a fresh plate and stored at −20° C. until further analysis. TNFα and IL-1β levels are measured using ELISA kits from Biosource (Catalog no. KHC3012 for TNFα; KAC1192 for IL-1β). A SpectraMAX 250 is used as the plate reader. Analysis is performed by non-linear regression to generate a dose response curve. The calculated IC50 value is the concentration of the test compound that causes a 50% decrease in TNFα or IL-1β levels.
A general note: In an ELISA, binding on a coated surface is turned into a signal by an enzyme label.

T1 sequence (Q16539 whole entry, the tested form may be a part): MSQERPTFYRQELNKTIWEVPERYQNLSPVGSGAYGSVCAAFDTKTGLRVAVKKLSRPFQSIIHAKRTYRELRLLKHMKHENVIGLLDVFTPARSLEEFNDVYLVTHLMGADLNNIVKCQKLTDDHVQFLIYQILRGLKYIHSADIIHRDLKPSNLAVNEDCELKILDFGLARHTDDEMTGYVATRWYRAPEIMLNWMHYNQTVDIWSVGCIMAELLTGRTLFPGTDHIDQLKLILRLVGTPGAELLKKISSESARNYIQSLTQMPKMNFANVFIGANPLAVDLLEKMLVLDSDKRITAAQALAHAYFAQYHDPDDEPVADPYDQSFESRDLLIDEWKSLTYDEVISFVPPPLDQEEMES

Turning to `CC(=O)N1CCN(c2cc(C(=O)Nc3ccc(OCCN4CCOCC4)c4ccccc34)ccn2)CC1` [Compound B123, 2-(4-Acetyl-piperazin-1-yl)-N-[4-(2-morpholin-4-yl-ethoxy)-naphthalen-1-yl]-isonicotinamide], the inhibition at 10 µM on p38α was 50.5%. Further, the pIC50 – broadly, the IC50 on a negative log10 scale, so that one unit is a factor of ten – at p38α is 5.24; in assay [1], 5.21.
For `CC1CCCN(c2cc(C(=O)Nc3ccc(OCCN4CCOCC4)c4ccccc34)ccn2)C1` (centres unmarked) [Compound B126, 3-Methyl-3,4,5,6-tetrahydro-2 H-[1,2′]bipyridinyl-4′-carboxylic acid [4-(2-morpholin-4-yl-ethoxy)-naphthalen-1-yl]-amide] the same measures were 85%, 6.35 and 6.03.
For `O=C(Nc1ccc(OCCN2CCOCC2)c2ccccc12)c1ccnc(N2CCCCC2)c1` [Compound B127, 3,4,5,6-Tetrahydro-2 H-[1,2′]bipyridinyl-4′-carboxylic acid [4-(2-morpholin-4-yl-ethoxy)-naphthalen-1-yl]-amide] the same measures were 68.5%, 5.73 and 6.11.
For `CC1CCN(c2cc(C(=O)Nc3ccc(OCCN4CCOCC4)c4ccccc34)ccn2)CC1` [Compound B128, 4-Methyl-3,4,5,6-tetrahydro-2 H-[1,2′]bipyridinyl-4′-carboxylic acid [4-(2-morpholin-4-yl-ethoxy)-naphthalen-1-yl]-amide] the same measures were 82%, 5.94 and 5.06.
In the case of `CC1CCCN1c1cc(C(=O)Nc2ccc(OCCN3CCOCC3)c3ccccc23)ccn1` (centres unmarked) [Compound B130, 2-(2-Methyl-pyrrolidin-1-yl)-N-[4-(2-morpholin-4-yl-ethoxy)-naphthalen-1-yl]-isonicotinamide], the inhibition at 10 µM on p38α was 88.5%. The pIC50 was 6.09 at p38α and 5.63 in assay [1].
Regarding `CCN(C)c1cc(C(=O)Nc2ccc(OCCN3CCOCC3)c3ccccc23)ccn1` [Compound B133, 2-(Ethyl-methyl-amino)-N-[4-(2-morpholin-4-yl-ethoxy)-naphthalen-1-yl]-isonicotinamide], on p38α, the inhibition at 10 µM came out at 52% and the negative logarithm of the IC50 (pIC50) was 5.11. Besides, the pIC50 in assay [1] was 5.07.
For `Cc1cc(C(=O)Nc2ccc(OCCN3CCOCC3)c3ccccc23)cc(N2CCCC(C)C2)n1` (centres unmarked) [Compound B153, 3,6′-Dimethyl-3,4,5,6-tetrahydro-2H-[1,2′]bipyridinyl-4′-carboxylic acid [4-(2-morpholin-4-yl-ethoxy)-naphthalen-1-yl]-amide] the same measures were 88%, 6.21 and 5.99.
For the compound `Cc1cc(C(=O)Nc2ccc(OCCN3CCOCC3)c3ccccc23)cc(N2CCC(C)CC2)n1` [Compound B154, 4,6′-Dimethyl-3,4,5,6-tetrahydro-2H-[1,2′]bipyridinyl-4′-carboxylic acid [4-(2-morpholin-4-yl-ethoxy)-naphthalen-1-yl]-amide], the inhibition at 10 µM at p38α amounted to 71%. In addition, the negative-log IC50 (pIC50) on p38α was 5.57; in assay [1], 5.60.
The matching figures for `Cc1cc(C(=O)Nc2ccc(OCCN3CCOCC3)c3ccccc23)cc(N2CCCC2C)n1` (centres unmarked) [Compound B155, 2-Methyl-6-(2-methyl-pyrrolidin-yl)-N-[4-(2-morpholin-4-yl-ethoxy)-naphthalen-1-yl]-isonicotinamide]: 89%, 6.13 and 5.61.
The matching figures for `O=C(Nc1ccc(OCCN2CCC(O)CC2)c2ccccc12)c1cc(F)cc(N2CCCCC2)c1` [Compound B158, 3-Fluoro-N-{4-[2-(4-hydroxypiperidin-1-yl)-ethoxy]-naphthalen-1-yl}-5-piperidin-1-yl-benzamide]: 72%, 5.57 and under 5.00.
Regarding `O=C(Nc1ccc(OCCN2CCC3(CC2)OCCO3)c2ccccc12)c1cc(F)cc(N2CCCCC2)c1` [Compound B159, N-{4-[2-(1,4-Dioxa-8-aza-spiro[4.5]dec-8-yl)-ethoxy]-naphthalen-1-yl}-3-fluoro-5-piperidin-1-yl-benzamide], the inhibition at 10 µM on p38α was determined as 72.5%. For the same compound, the negative-log IC50 (pIC50) is 5.96 on p38α and under 5.00 in assay [1].
For `CCOC(=O)C1CCN(CCOc2ccc(NC(=O)c3cc(F)cc(N4CCCCC4)c3)c3ccccc23)CC1` [Compound B160, 1-{2-[4-(3-Fluoro-5-piperidin-1-yl-benzoylamino)-naphthalen-1-yloxy]-ethyl}-piperidine-4-carboxylic acid ethyl ester] the same measures were 58.5%, 5.74 and under 5.00.
For `O=C(Nc1ccc(OCCCN2CCC(O)CC2)c2ccccc12)c1cc(F)cc(N2CCCCC2)c1` [Compound B162, 3-Fluoro-N-{4-[3-(4-hydroxy-piperidin-1-yl)-propoxy]-naphthalen-1-yl}-5-piperidin-1-yl-benzamide] the same measures were 59.5%, 5.00 and under 5.00.
For `O=C(Nc1ccc(OCCN2CCC(CO)CC2)c2ccccc12)c1cc(F)cc(N2CCCCC2)c1` [Compound B163, 3-Fluoro-N-{4-[2-(4-hydroxymethyl-piperidin-1-yl)-ethoxy]-naphthalen-1-yl}-5-piperidin-1-yl-benzamide] the same measures were 57%, 5.32 and under 5.00.
Take `CC(=O)N1CCN(CCOc2ccc(NC(=O)c3cc(F)cc(N4CCCCC4)c3)c3ccccc23)CC1` [Compound B167, N-{4-[2-(4-Acetyl-piperazin-1-yl)-ethoxy]-naphthalen-1-yl}-3-fluoro-5-piperidin-1-yl-benzamide]: the figures for the negative-log IC50 (pIC50) (on p38α; in assay [1]) were 6.07 and under 5.00, respectively.
In the case of `CC(C)(C)CNc1cccc(C(=O)Nc2ccc(OCCN3CCOCC3)c3ccccc23)c1` [Compound B173, 3-(2,2-Dimethyl-propylamino)-N-[4-(2-morpholin-4-yl-ethoxy)-naphthalen-1-yl]-benzamide], on p38α, the inhibition at 10 µM was determined as 89.5% and the negative logarithm of the IC50 (pIC50) was 6.13. Also, in assay [1], the pIC50 is 5.64.
With `CC1CCN(c2cc(F)cc(C(=O)Nc3ccc(N4CCN(C(=O)OC(C)(C)C)CC4)c4ccccc34)c2)CC1` [Compound B192], the pIC50 on p38α was under 5.00; in assay [1] it was 5.33.
For `CC1CCN(c2cc(F)cc(C(=O)Nc3ccc(OCc4nn[nH]n4)c4ccccc34)c2)CC1` [Compound B193, 3-Fluoro-5-(4-methylpiperidin-1-yl)-N-[4-(2H-tetrazol-5-ylmethoxy)-naphthalen-1-yl]-benzamide] the same measures were 5.42 and under 5.00.
For `CC(=O)N1CCN(c2ccc(NC(=O)c3cc(F)cc(N4CCC(C)CC4)c3)c3ccccc23)CC1` [Compound B196] the same measures were 5.50 and under 5.00.
The matching figures for `CC1CCN(c2cc(F)cc(C(=O)Nc3ccc(OCCN4CCNC(=O)C4)c4ccccc34)c2)CC1` [Compound B197, 3-Fluoro-5-(4-methyl-piperidin-1-yl)-N-{4-[2-(3-oxo-piperazin-1-yl)-ethoxy]-naphthalen-1-yl}-benzamide]: 5.85 and 5.18.
As for `O=C1CCN(c2cc(F)cc(C(=O)Nc3ccc(OCCN4CCOCC4)c4ccccc34)c2)CC1` [Compound B198, 3-Fluoro-N-[4-(2-morpholin-4-yl-ethoxy)-naphthalen-1-yl]-5-(4-oxo-piperidin-1-yl)-benzamide], the negative logarithm of the IC50 (pIC50) at p38α is 5.75; in assay [1] it was 5.07.
For `O=C(Nc1ccc(OCCN2CCOCC2)c2ccccc12)c1cc(F)cc(N2CCc3ccccc3C2)c1` [Compound B200] the same measures were under 5.00 and under 5.00.
